Source: ChEMBL document CHEMBL1201862, “PubChem BioAssay data set” (2004)
Calls of active or inactive are those of the source.

Key:
[1] = NIH:OVCAR-3 ovarian cancer cell cytotoxicity, dose response, PAX8 inhibitor project, plate reader, dry powder samples (AID 743044); format: functional, cell-based
[2] = molecular target: Paired box protein Pax-8 (Homo sapiens, UniProt Q06710); experiment: inhibitors of PAX8-driven TPO luciferase reporter, dose response, RMG-I cells, cherry-pick (AID 687027); format: functional, cell-based;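 also: luciferase reporter driven by Pax8 target thyroperoxidase promoter measured by SteadyGlo luminescence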
[3] = molecular target: FAD-linked sulfhydryl oxidase ALR (Homo sapiens, UniProt P55789); experiment: inhibitors of human ALR sulfhydryl oxidase, dose response, biochemical, H2O2 detection, luminescence, cherry-pick (AID 493248)
[4] = molecular target: T1, Caspase-6 (Homo sapiens, UniProt P55212); experiment: human caspase-6 inhibitors, dose response, biochemical, VEID-R110 fluorescence, cherry-pick (AID 720632)
T1 sequence (P55212 whole entry): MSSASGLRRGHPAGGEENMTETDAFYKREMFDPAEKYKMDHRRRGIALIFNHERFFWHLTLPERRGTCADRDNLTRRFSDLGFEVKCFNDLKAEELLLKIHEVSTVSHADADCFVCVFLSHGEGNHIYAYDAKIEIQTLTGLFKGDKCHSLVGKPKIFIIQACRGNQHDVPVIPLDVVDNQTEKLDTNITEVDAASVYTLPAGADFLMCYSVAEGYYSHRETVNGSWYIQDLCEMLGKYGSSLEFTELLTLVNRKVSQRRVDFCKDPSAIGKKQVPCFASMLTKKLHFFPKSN

[5] = molecular target: T2, Endoribonuclease toxin MazF (Escherichia coli K-12, UniProt P0AE70); experiment: MazF toxin RNase activators, dose response, biochemical, fluorescence, single-stranded RNA substrate, uHTS hits (AID 588481); format: functional
T2 sequence (P0AE70 whole entry): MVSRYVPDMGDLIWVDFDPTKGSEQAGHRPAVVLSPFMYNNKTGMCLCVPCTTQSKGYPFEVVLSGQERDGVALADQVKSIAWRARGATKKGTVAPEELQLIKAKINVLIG

[6] = molecular target: T2, Endoribonuclease toxin MazF; experiment: fluorescent RNA oligo signal without MazF, dose response, counter-screen for MazEF activator project, biochemical, fluorescence, single-stranded RNase substrate (AID 588502); format: functional
[7] = molecular target: T3, Apoptotic protease-activating factor 1 (Homo sapiens, UniProt O14727); format: functional
T3 sequence (O14727 whole entry): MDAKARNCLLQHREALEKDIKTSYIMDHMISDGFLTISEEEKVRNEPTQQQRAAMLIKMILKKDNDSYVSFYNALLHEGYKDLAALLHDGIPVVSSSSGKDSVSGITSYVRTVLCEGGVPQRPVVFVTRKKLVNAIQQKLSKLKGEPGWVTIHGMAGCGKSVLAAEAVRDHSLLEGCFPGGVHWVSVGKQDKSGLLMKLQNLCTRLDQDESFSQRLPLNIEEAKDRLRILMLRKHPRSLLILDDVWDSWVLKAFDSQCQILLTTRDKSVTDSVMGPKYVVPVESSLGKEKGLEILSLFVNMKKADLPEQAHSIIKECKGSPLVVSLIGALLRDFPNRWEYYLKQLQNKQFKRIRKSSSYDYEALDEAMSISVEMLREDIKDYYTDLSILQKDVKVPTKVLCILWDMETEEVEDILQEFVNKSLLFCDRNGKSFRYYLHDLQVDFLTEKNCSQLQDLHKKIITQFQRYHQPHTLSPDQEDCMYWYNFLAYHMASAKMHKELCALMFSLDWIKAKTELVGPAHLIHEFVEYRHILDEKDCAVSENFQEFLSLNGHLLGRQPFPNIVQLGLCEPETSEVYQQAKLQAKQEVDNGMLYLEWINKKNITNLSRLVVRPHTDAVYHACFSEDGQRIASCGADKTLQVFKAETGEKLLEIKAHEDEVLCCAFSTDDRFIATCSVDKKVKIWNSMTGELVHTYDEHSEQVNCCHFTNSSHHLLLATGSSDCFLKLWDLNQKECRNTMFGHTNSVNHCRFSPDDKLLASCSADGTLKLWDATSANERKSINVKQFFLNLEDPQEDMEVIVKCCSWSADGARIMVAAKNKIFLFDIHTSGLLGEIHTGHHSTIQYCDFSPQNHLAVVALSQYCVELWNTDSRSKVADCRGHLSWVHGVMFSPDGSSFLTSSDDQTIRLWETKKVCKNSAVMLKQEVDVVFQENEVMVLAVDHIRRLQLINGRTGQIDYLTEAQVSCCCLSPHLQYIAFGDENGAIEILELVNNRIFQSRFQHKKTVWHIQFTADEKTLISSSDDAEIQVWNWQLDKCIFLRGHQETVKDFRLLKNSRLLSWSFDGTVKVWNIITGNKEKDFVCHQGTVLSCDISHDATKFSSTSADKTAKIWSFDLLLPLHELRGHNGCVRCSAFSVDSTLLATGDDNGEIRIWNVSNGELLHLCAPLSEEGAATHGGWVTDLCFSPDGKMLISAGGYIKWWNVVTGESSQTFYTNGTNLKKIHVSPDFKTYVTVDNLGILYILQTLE

[8] = HepG2 cell cytotoxicity, dose response, cytotoxicity control, cherry-picked samples (AID 1159577); format: functional, cell-based
[9] = P. falciparum Dd2 growth inhibitors, dose response, SYBR Green, cherry-picked samples (AID 1159567); format: functional, cell-based

Chain of Paired box protein Pax-8 (Q06710 whole entry): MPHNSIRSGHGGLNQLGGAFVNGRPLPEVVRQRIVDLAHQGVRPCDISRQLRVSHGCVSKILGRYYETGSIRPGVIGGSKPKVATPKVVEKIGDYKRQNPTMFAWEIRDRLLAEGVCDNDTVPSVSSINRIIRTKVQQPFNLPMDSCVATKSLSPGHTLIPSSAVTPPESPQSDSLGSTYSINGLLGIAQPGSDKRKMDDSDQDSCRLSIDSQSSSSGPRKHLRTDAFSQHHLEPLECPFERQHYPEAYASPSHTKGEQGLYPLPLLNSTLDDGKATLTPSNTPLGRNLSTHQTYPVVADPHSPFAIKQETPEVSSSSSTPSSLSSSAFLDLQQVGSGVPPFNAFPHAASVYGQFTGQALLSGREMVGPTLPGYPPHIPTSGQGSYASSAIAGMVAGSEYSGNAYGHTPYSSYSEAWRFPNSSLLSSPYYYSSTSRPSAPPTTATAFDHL
Chain of FAD-linked sulfhydryl oxidase ALR (P55789 whole entry): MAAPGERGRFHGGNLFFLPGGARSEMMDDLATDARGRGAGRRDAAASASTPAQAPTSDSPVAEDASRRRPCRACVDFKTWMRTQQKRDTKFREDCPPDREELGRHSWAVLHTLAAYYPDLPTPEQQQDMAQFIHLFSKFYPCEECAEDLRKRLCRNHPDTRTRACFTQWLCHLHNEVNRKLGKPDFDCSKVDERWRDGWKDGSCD

With `O=C(Cc1cccnc1)N1CCCCN2[C@H](C1)[C@H](c1ccc(C#CC3CCCC3)cc1)[C@@H]2CO` the AC50 [1] was 9.02 µM (active) and the AC50 [2] was 5.07 µM (active).

With `NNS(=O)(=O)c1ccc2c(c1)Cc1cc(S(=O)(=O)NN)ccc1-2` the AC50 [3] was 0.079 µM (active), the AC50 [4] was 15.8 µM (active) and the EC50 [5] was 89.5 µM (inactive). For the same molecule, the EC50 [6] was 4.48 µM (active).

With `CCOc1ccc(NC(=O)CN(C)C(=O)c2ccc(COc3ccccc3)cc2)cc1OCC` the IC50 [7] was > 100 µM (inactive).

In the case of `Cc1cccc(-c2ccc([C@H]3[C@@H](CO)N4CCCCN(CCC(F)(F)F)C[C@H]34)cc2)c1`, the AC50 [8] is reported as 8.62 µM (active) and the AC50 [9] is reported as 1.01 µM (active).

In the case of `O=C(c1ccc2c(c1)OCO2)N1C[C@@H]2N[C@H](C1)[C@@H]2c1ccc(/C=C/c2ccccc2)cc1`, the AC50 [8] is reported as 11.5 µM (active) and the AC50 [9] is reported as 4.03 µM (active).

For `C[C@H](CO)N1C[C@H](C)[C@H](CN(C)Cc2ccc(-c3ccccc3)cc2)OCc2ccccc2-c2ccccc2C1=O`, the AC50 [8] was > 39 µM (inactive) and the AC50 [9] was 5.19 µM (active).
